# Measurements: patent US20250145589A1, “PYRIDINE DERIVATIVE AND USE THEREOF” (SICHUAN HUIYU PHARMACEUTICAL CO., LTD., priority 2021, published 2025)
# Like-named read-outs stand apart in the source and are kept apart here.
# What was measured:
# [1] = system: NCI-H358-AMGR drug-resistant cell line; test: NCI-H358-AMGR drug-resistant cell proliferation inhibitory activity test; type: cell-based; settings: for IC50: 72 h, NCI-H358-AMGR drug-resistant cells, 3 days incubation, CellTiter-Glo
# Method: Test Example 6t Generation of NCI-H358-AMGR Drug-Resistant Cell Line
# (§1) NCI-H358 cells were seeded and cultured at 50 to 70% confluence in six-well plate with RPMI-640 (10% FBS) medium at 37° C. with 5%4 CO2. AMG510 was added for induction at three starting concentrations of 1 nM, 10 nM and 50 nM, and the medium containing the same concentration of AMG510 was replaced every 3 days. Cells were passaged once they reached confluence. After every, two passages at a given concentration of drug, the concentration was increased in a 3-old increment until final concentrations of 1 μM for AMG510 was achieved.
# (§2) NCI-H358-AMGR cells in logarithmic growth phase were collected and seeded into a clear-bottom 96-well plate at a density of 4×10^3 cells per well in 80 μL of medium, and then incubated overnight at 37° C. with 5% CO2. The compounds were serially diluted 5-fold in DMSO to obtain 8 concentrations, and then further diluted with RPMI-640) (10% FBS) cell culture medium to obtain the working solutions (5×), 20 μL of each working solution was added to the cell culture supernatant in each well, and the plate was further incubated for 3 days at 37° C. with 5% CO2. The plate was then equilibrated with CellTiter-Glo® reagent at room temperature (25° C.) for 10-30 minutes. After aspirating 50 μL of the medium, 50 μL of CellTiter-Glo®, reagent was added. The cells were thoroughly mixed with the CellTiter-Glo®, reagent using a microplate shaker for 2 minutes, and then incubated at room temperature for 10 minutes. The %-well plate was placed in a multi-mode microplate reader to record the luminescence values (RLU).
# (§3) The inhibitory rate was calculated using the following formula: […]
# Data were analyzed using GraphPad Prism for IC50 values (Note: The negative control refers to the group without inhibitor).
# [2] = system: MIA PaCa-2-AMGR drug-resistant cell line; test: MIA PaCa-2-AMGR drug-resistant cell proliferation inhibitory activity test; type: cell-based; settings: for IC50: 72 h, MIA PaCa-2-AMGR drug-resistant cells, 3 days incubation, CellTiter-Glo
# Method: Test Example 7: Generation of MIA PaCa-2-AMGR drug-resistant cell line
# as §1, with “MIA PaCa-2” for “NCI-H358”, “DMEM” for “RPMI-640”, “FBS+2.5% horse serum)” for “FBS)”, “5%” for “5%4”, “every” for “every,”, “3-fold” for “3-old”
# as §2, with “MIA PaCa-2-AMGR” for “NCI-H358-AMGR”, “DMEM” for “RPMI-640)”, “FBS+2.5% horse serum)” for “FBS)”, “CellTiter-Glo®” for “CellTiter-Glo®,”, “96-well” for “%-well”
# as §3
# Data were analyzed using GraphPad Prism for IC50 values (Note: The negative control refers to the group without inhibitor) The data were presented m Table 9
# PI3Kα = PI3Kα (Homo sapiens (Human), UniProt P42336); test: Inhibition of PI3Kα efficacy assay (ADP-Glo kinase assay); type: biochemical; settings: read-out: PI3Kα inhibitory activity (IC50)
# Summary of the method: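 ADP-Glo luminescent detection of ADP from PI3Kα acting on PI substrate with ATP, 60 min at RT; compounds in 8-point five-fold serial dilution from 2 mM DMSO stock. IC50 from four-parameter variable-slope fit.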
# [3] = system: NCI-H358 cells (KRAS G12C mutant); test: NCI-H358 cell proliferation inhibition (CellTiter-Glo); type: cell-based; settings: Homo sapiens, NCI-H358, 72 h; H358 cells (G12C mutation), 3 days, Table 6; read-out: NCI-H358 (IC50)
# [4] = system: MIA PaCa-2 cells (KRAS G12C mutant); test: MIA PaCa-2 cell anti-proliferation (CellTiter-Glo); type: cell-based; settings: Homo sapiens
# Method: The number of viable cells was determined using the CellTiter-Glo® assay to evaluate the anti-proliferation efficacy of compounds. […] The compounds were serially diluted 4-fold in DMSO to obtain 9 concentrations, and then further diluted with DMEM (10% FBS+2.5% horse serum+1% penicillin/streptomycin) cell culture medium to obtain the working solutions (2×), 15 μL of each working solution was added to the cell culture supernatant in each well, and the cells were further incubated for 3 days at 37° C. with 5% CO2. The plate was then equilibrated with CellTiter-Glo® reagent at room temperature (25° C.) for 30 minutes. After adding 25 μL of CellTiter-Glo®, reagent, the cells were thoroughly mixed with the CellTiter-Glo® reagent using a microplate shaker for 2 minutes, and then incubated at room temperature for at least 30 minutes. […] Data were analyzed using GraphPad Prism for IC50 values (Note: The negative control refers to the group without inhibitor).
# PI3Kδ = PI3Kδ (Homo sapiens (Human), UniProt O00329); test: Inhibition of PI3Kδ efficacy assay (ADP-Glo kinase assay); type: biochemical; settings: read-out: PI3Kδ inhibitory activity (IC50)
# Summary of the method: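 Luminescent ADP-Glo readout of PI3Kδ: after a 60 min RT reaction with PI/ATP substrate, ATP depletion (40 min) and ADP detection (40 min) steps followed. Compounds tested as eight five-fold serial dilutions; inhibition rates fitted to log(inhibitor) vs. response, variable slope, for IC50.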
# [5] = 72 h, MIA Paca-2 cells, 3 days, Table 7, read-out: MIA PaCa-2 (IC50)
# Chain of PI3Kδ (O00329 whole entry): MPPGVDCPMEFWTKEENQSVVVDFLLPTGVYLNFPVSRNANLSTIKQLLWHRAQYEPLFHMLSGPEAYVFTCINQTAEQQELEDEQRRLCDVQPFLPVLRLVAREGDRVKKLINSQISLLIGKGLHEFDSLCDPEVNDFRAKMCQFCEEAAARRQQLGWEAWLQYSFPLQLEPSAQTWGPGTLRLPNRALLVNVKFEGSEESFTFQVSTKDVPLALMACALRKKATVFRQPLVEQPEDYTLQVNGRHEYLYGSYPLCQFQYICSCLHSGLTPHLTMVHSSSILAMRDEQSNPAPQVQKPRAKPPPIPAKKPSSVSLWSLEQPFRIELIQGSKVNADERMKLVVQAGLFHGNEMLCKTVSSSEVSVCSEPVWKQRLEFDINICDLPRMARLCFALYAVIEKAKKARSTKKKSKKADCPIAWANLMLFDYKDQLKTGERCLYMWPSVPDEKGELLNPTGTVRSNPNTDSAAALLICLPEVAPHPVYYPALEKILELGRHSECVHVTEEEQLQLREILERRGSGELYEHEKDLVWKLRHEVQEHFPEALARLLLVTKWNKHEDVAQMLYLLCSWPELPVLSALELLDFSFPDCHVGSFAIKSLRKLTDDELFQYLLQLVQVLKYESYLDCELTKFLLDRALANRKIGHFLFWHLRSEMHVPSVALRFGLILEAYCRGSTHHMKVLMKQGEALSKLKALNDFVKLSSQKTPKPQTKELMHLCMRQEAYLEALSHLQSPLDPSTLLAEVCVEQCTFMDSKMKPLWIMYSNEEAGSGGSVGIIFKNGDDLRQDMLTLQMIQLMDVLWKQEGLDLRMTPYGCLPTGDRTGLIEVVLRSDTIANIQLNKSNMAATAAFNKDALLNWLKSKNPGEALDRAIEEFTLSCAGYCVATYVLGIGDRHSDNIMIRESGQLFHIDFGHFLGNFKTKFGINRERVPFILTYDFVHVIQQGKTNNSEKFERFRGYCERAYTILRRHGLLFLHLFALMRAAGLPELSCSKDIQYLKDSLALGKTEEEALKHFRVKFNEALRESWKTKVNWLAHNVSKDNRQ
# Chain of PI3Kδ (P27986 whole entry partner): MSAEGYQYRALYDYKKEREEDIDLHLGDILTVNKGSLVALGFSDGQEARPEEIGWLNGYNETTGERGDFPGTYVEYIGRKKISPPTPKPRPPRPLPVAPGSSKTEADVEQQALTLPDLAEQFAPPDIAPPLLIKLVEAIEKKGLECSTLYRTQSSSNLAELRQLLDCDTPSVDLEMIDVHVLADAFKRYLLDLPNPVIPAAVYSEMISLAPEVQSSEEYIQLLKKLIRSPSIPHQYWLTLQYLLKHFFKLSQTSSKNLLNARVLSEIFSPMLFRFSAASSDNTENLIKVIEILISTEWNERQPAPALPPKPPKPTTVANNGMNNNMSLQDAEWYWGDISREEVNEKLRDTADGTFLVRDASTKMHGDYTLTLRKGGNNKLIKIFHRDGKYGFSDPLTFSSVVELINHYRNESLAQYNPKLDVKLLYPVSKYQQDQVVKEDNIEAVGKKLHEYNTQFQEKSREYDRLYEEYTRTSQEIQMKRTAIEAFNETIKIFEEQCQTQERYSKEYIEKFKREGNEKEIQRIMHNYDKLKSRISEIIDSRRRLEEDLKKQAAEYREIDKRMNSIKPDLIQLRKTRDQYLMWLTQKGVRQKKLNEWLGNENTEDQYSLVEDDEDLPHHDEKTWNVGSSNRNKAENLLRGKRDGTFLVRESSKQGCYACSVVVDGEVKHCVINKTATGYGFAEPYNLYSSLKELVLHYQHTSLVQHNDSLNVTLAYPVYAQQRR
# Chain of PI3Kα (P42336 whole entry): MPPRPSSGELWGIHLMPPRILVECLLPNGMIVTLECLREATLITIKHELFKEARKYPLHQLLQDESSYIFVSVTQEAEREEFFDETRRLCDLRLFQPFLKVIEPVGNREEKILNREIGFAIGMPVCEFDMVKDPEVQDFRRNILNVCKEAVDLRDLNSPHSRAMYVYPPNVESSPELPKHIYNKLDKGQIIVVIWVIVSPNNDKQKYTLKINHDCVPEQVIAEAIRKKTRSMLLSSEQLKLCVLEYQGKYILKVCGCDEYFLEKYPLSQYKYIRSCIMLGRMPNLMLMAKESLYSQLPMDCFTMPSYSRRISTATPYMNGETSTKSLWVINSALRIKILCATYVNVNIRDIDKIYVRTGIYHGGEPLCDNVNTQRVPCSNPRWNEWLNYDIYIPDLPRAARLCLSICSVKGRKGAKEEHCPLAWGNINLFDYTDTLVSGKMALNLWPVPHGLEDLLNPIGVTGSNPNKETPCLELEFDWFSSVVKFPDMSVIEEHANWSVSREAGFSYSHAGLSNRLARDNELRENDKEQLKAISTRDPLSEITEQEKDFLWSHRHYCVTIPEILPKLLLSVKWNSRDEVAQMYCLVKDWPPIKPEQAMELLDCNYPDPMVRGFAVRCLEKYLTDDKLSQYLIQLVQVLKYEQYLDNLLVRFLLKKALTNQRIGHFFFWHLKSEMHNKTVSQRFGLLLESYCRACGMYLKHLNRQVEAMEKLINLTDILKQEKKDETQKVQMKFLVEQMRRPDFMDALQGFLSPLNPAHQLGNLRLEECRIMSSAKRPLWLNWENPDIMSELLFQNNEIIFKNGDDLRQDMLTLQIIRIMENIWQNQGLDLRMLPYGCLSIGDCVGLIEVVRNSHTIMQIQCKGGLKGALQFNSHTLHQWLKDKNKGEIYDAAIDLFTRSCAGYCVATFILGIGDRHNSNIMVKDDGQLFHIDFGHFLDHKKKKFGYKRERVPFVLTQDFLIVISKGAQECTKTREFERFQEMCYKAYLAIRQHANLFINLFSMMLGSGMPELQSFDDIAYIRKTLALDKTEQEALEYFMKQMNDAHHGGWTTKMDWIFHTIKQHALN
# Chain of PI3Kα (P27986 whole entry partner): as the sequence (P27986 whole entry partner) above
structure (smiles),measurement,setting,value
"C=CC(=O)N1CCN(c2nc(=O)n(-c3c(C)ccnc3C(C)C)c3nc(-c4c(O)cccc4F)c(F)cc23)[C@@H](C)C1 [AMG-510, reference compound]",inhibition at 10 µM,"[1]; 10 μM, NCI-H358-AMGR, read-out: inhibition rate at the maximum dose",≤ 50%
same,IC50,[1],> 10 µM
same,inhibition at 10 µM,"[2]; 10 μM, MIA PaCa-2-AMGR, read-out: inhibition rate at the maximum dose",< 50%
same,IC50,[2],> 10 µM
"C=CC(=O)N1CCN(c2ncnc3ccc(-c4cnc(OC)c(NS(=O)(=O)c5ccc(F)cc5F)c4)cc23)CC1 [Example 1, N-(5-(4-(4-acryloylpiperazin-1-yl)quinazolin-6-yl)-2-methoxypyridin-3-yl)-2,4-difluorobenzenesulfonamide]",IC50,PI3Kα; Table 1,0.00026 µM
same,IC50,[3],0.021 µM
same,IC50,[4]; [5],98 nM
same,IC50,[1],0.027 µM
same,IC50,[2],0.036 µM
"C=CC(=O)N1CCC(Nc2ncnc3ccc(-c4cnc(Cl)c(NS(=O)(=O)c5ccc(F)cc5F)c4)nc23)CC1 [Example 2, N-(5-(4-((1-acryloylpiperidin-4-yl)amino)pyrido[3,2-d]pyrimidin-6-yl)-2-chloropyridin-3-yl)-2,4-difluorobenzenesulfonamide]",IC50,PI3Kα; Table 1,0.0073 µM
same,IC50,PI3Kδ; Table 1,0.0418 µM
same,IC50,[3],0.485 µM
same,IC50,[4]; [5],485 nM
"C=CC(=O)N1CCN(c2ncnc3ccc(-c4cnc(OC)c(NS(C)(=O)=O)c4)cc23)CC1 [Example 4, N-(5-(4-(4-acryloylpiperazin-1-yl)quinazolin-6-yl)-2-methoxypyridin-3-yl)methanesulfonamide]",IC50,PI3Kα; Table 1,0.0095 µM
same,IC50,PI3Kδ; Table 1,0.012 µM
same,IC50,[3],0.494 µM
same,IC50,[4]; [5],494 nM
"COc1ncc(-c2ccc3ncnc(N4CCN(C(=O)/C=C/C(C)=O)C[C@@H]4C)c3c2)cc1NS(=O)(=O)c1ccc(F)cc1F [Example 8, (S,E)-2,4-difluoro-N-(2-methoxy-5-(4-(2-methyl-4-(4-oxopent-2-enoyl)piperazin-1-yl)quinazolin-6-yl)pyridin-3-yl)benzenesulfonamide]",IC50,[3],0.0912 µM
same,IC50,[4]; [5],73.6 nM
same,IC50,[1],0.0816 µM
same,IC50,[2],0.249 µM
"COc1ncc(-c2ccc3ncnc(N4CCC5(CN(C(=O)/C=C/C(C)=O)C5)C4)c3c2)cc1NS(=O)(=O)c1ccc(F)cc1F [Example 13, (E)-2,4-difluoro-N-(2-methoxy-5-(4-(2-(4-oxopent-2-enoyl)-2,6-diazaspiro[3.4]octan-4-yl)quinazolin-6-yl)pyridin-3-yl)benzenesulfonamide]",IC50,[3],0.0733 µM
same,IC50,[4]; [5],144 nM
same,IC50,[2],0.433 µM
"C=C(F)C(=O)N1CCN(c2ncnc3ccc(-c4cnc(OC)c(NS(=O)(=O)c5ccc(F)cc5F)c4)cc23)CC1 [Example 59, 2,4-difluoro-N-(5-(4-(4-(2-fluoroacryloyl)piperazin-1-yl)quinazolin-6-yl)-2-methoxypyridin-3-yl)benzenesulfonamide]",IC50,PI3Kα; Table 2,0.0033 µM
same,IC50,PI3Kδ; Table 2,0.0131 µM
same,IC50,[3],0.0306 µM
same,IC50,[2],0.141 µM
"COc1ncc(-c2ccc3ncnc(N4CCN(C(=O)/C=C/C(C)=O)CC4)c3c2)cc1NS(=O)(=O)c1cccc2cccc(Cl)c12 [Example 96, (E)-8-chloro-N-(2-methoxy-5-(4-(4-(4-oxopent-2-enoyl)piperazin-1-yl)quinazolin-6-yl)pyridin-3-yl)naphthalene-1-sulfonamide]",IC50,PI3Kα; Table 2,0.001 µM
same,IC50,PI3Kδ; Table 2,0.171 µM
same,IC50,[3],0.0358 µM
same,IC50,[4]; [5],90 nM
"COc1ncc(-c2ccc3ncnc(N4CCN(C(=O)/C=C/C(C)=O)CC4)c3c2)cc1S(=O)(=O)Nc1ccc(F)cc1F [Example 166, (E)-N-(2,4-difluorophenyl)-2-methoxy-5-(4-(4-(4-oxopent-2-enoyl)piperazin-1-yl)quinazolin-6-yl)pyridine-3-sulfonamide]",IC50,PI3Kα; Table 4,0.0161 µM
same,IC50,PI3Kδ; Table 4,0.0223 µM
same,IC50,[3],0.344 µM
same,IC50,[4]; [5],369 nM
"C=C(C(=O)N1CCN(c2ncnc3ccc(-c4cnc(OC)c(NS(=O)(=O)c5ccc(F)cc5F)c4)cc23)CC1)C(C)O (stereo not shown) [Example 167, 2,4-difluoro-N-(5-(4-(4-(3-hydroxy-2-methylenebutanoyl)piperazin-1-yl)quinazolin-6-yl)-2-methoxypyridin-3-yl)benzenesulfonamide]",IC50,PI3Kα; Table 4,0.0022 µM
same,IC50,PI3Kδ; Table 4,0.0118 µM
same,IC50,[3],0.0365 µM
same,IC50,"[4]; MIA PaCa-2, 72 h, read-out: MIA PaCa-2 (IC50, nM)",112 nM
same,IC50,[1],0.073 µM
"COc1ncc(-c2ccc3ncnc(N4CCN(C(=O)/C=C/C(C)=O)CC4)c3n2)cc1NS(=O)(=O)c1sc(C)nc1C [Example 222, (E)-N-(2-methoxy-5-(4-(4-(4-oxopent-2-enoyl)piperazin-1-yl)pyrido[3,2-d]pyrimidin-6-yl)pyridin-3-yl)-2,4-dimethyl-thiazole-5-sulfonamide]",IC50,PI3Kα; Table 4,0.00049 µM
same,IC50,PI3Kδ; Table 4,0.0117 µM
same,IC50,[3],0.0351 µM
same,IC50,[4]; [5],29.1 nM
"COc1ncc(-c2ccc3ncnc(N4CCN(C(=O)/C=C/C(C)=O)CC4)c3n2)cc1NS(=O)(=O)c1cnccc1C [Example 223, (E)-N-(2-methoxy-5-(4-(4-(4-oxopent-2-enoyl)piperazin-1-yl)pyrido[3,2-d]pyrimidin-6-yl)pyridin-3-yl)-4-methyl-pyridine-3-sulfonamide]",IC50,[3],0.135 µM
same,IC50,[4]; [5],94.4 nM
same,IC50,[1],0.0852 µM
same,IC50,[2],0.0631 µM
"COc1ncc(-c2ccc3ncnc(N4CCN(C(=O)/C=C\C(=O)C(F)(F)F)CC4)c3c2)cc1NS(=O)(=O)c1ccc(F)cc1F [Example 248, (Z)-2,4-difluoro-N-(2-methoxy-5-(4-(4-(5,5,5-trifluoro-4-oxopent-2-enoyl)piperazin-1-yl)quinazolin-6-yl)pyridin-3-yl)benzenesulfonamide]",IC50,PI3Kα; Table 4,0.0023 µM
same,IC50,[3],0.115 µM
same,IC50,[4]; [5],44.1 nM
